Reference: PMC2375326, “In vitro evaluation of amino acid prodrugs of novel antitumour 2-(4-amino-3-methylphenyl)benzothiazoles” (British Journal of Cancer, 2002)

Legend:
SN12C = test: NCI in vitro cytotoxicity assay (SRB), SN12C; assay type: cell-based; details: Homo sapiens, 48 h exposure, sulforhodamine B assay, mean graph, read-out: Log10 GI50 (SN12C) (converted)
Experimental: (§1) Cell culture and drug application procedures have been described previously ([Boyd and Paull, 1995]). Briefly, cell lines were inoculated into a series of 96-well microtiter plates, with varied seeding densities depending on growth characteristics of each cell line. Following a 24 h drug free incubation, test agents were added at five 10-fold dilutions with a maximum concentration of 100 μM. Cellular protein levels were determined after 48 h drug exposure by sulphorhodamine B colorimetry.

MDA-MB-231/ATCC = test: NCI in vitro cytotoxicity assay (SRB), MDA-MB-231/ATCC; assay type: cell-based; details: Homo sapiens, 48 h exposure, sulforhodamine B assay, mean graph, read-out: Log10 GI50 (MDA-MB-231/ATCC) (converted)
Experimental: as §1

SK-MEL-2 = test: NCI in vitro cytotoxicity assay (SRB), SK-MEL-2; assay type: cell-based; details: Homo sapiens, 48 h exposure, sulforhodamine B assay, mean graph, read-out: Log10 GI50 (SK-MEL-2) (converted)
Experimental: as §1

ACHN = test: NCI in vitro cytotoxicity assay (SRB), ACHN; assay type: cell-based; details: Homo sapiens, 48 h exposure, sulforhodamine B assay, mean graph, read-out: Log10 GI50 (ACHN) (converted)
Experimental: as §1

LOX IMVI = test: NCI in vitro cytotoxicity assay (SRB), LOX IMVI; assay type: cell-based; details: Homo sapiens, 48 h exposure, sulforhodamine B assay, mean graph, read-out: Log10 GI50 (LOX IMVI) (converted)
Experimental: as §1

[1] = test system: CYP1A1 activity (EROD) in MCF-7 cells; test: Induction of EROD activity in lysates of treated MCF-7 cells; assay type: cell-based, human; details: lysates of MCF-7 cells treated with 1 μM, 24 h; negligible activity in untreated lysates; mean of three, s.d. <10%
Experimental: A sensitive and rapid fluorometric assay was used to measure EROD activity ([Burke et al, 1994]). Incubation mixtures (total 1 ml) consisted of 100 mM Tris-HCl (pH 7.4), 50 μM MgCl2, 100 μM 7-ethoxyresorufin and 100 μl cell homogenate. Homogenates were prepared following treatment of cells for 24 h with compounds 1, 2, 2a, 2b, 3, 3a, 3b, 4, 4a and 4b or vehicle alone and protein content determined (n=3). Thus induction of ethoxyresorufin O-deethylation by agents under study, catalysed by CYP1A1 activity, could be determined. Alternatively, microsomes expressing recombinant CYP1A1 (0.1 mg ml^−1) provided the enzyme source for EROD catalysis, in the presence or absence of drug, in order to determine inhibition of CYP1A1 activity by compounds 1, 2, 2a, 2b, 3, 3a, 3b, 4, 4a and 4b. Incubation mixtures were pre-incubated for 5 min at 37°C before initiation of reaction by addition of NADPH (500 μM). Following further incubations at 37°C (30 min for cell homogenates, 15 min for CYP1A1 microsomes), reactions were terminated by addition of 3 ml ice-cold acetonitrile. Reaction mixtures were centrifuged (1400 r.p.m., 10 min) before analyses of supernatants. Fluorescence was read on a Perkin-Elmer LS-5 luminescence spectrometer (excitation, 530 nm; emission 585 nm). Estimation of resorufin reaction product (pmoles mg^−1 protein, pmoles 100 μg^−1 microsomes), as a measure of CYP1A1 activity, was determined following performance of a resorufin standard curve.

[2] = test system: CYP1A1 protein expression in MCF-7 cells; test: Western blot of CYP1A1 protein, MCF-7 lysates; assay type: cell-based, human; details: 1 μM, 24 h
Experimental: Whole cell lysates were prepared for examination of CYP1A1 protein expression from untreated MCF-7, IGROV-1 and HCT 116 cultures and following exposure of cells to compounds 1, 2, 2a, 2b, 3, 3a, 3b, 4, 4a and 4b. Following protein determination (n=3, [Bradford, 1976]) and addition of sample buffer, samples were boiled at 95°C for 5 min and solubilised proteins (50 μg) were separated by sodium dodecyl sulphate (SDS) polyacrylamide gel (10%) electrophoresis. Proteins were electroblotted to polyvinylidene difluoride (PVDF) membranes and probed for CYP1A1 protein with polyclonal antiserum specific for human CYP1A1/1A2 (Gentest Corporation). Secondary antibody was conjugated to alkaline phosphatase, and CYP1A1 was detected following brief (<10 min) incubation with bromochloroindolyl phosphate and nitro-blue tetrazolium in alkaline phosphatase buffer. Molecular weight markers and a positive control of recombinant CYP1A1 (Gentest Corporation), included in all blots, confirmed detection of 52 kDa CYP1A1 protein.

NCIH23 = test: NCI in vitro cytotoxicity assay (SRB), NCIH23; assay type: cell-based; details: Homo sapiens, NCI-H23; 48 h exposure, sulforhodamine B assay, mean graph; read-out: Log10 GI50 (NCIH23) (converted)
Experimental: as §1

MCF7 = test: NCI in vitro cytotoxicity assay (SRB), MCF7; assay type: cell-based; details: Homo sapiens, 48 h exposure, sulforhodamine B assay, mean graph, read-out: Log10 GI50 (MCF7) (converted)
Experimental: as §1

UACC-62 = test: NCI in vitro cytotoxicity assay (SRB), UACC-62; assay type: cell-based; details: Homo sapiens, 48 h exposure, sulforhodamine B assay, mean graph, read-out: Log10 GI50 (UACC-62) (converted)
Experimental: as §1

M14 = test: NCI in vitro cytotoxicity assay (SRB), M14; assay type: cell-based; details: Homo sapiens, 48 h exposure, sulforhodamine B assay, mean graph, read-out: Log10 GI50 (M14) (converted)
Experimental: as §1

NCI-460 = test: NCI in vitro cytotoxicity assay (SRB), NCI-460; assay type: cell-based; details: Homo sapiens, 48 h exposure, sulforhodamine B assay, mean graph, read-out: Log10 GI50 (NCI-460) (converted)
Experimental: as §1

HT29 = test: NCI in vitro cytotoxicity assay (SRB), HT29; assay type: cell-based; details: Homo sapiens, HT-29; 48 h exposure, sulforhodamine B assay, mean graph; read-out: Log10 GI50 (HT29) (converted)
Experimental: as §1

UACC-257 = test: NCI in vitro cytotoxicity assay (SRB), UACC-257; assay type: cell-based; details: Homo sapiens, 48 h exposure, sulforhodamine B assay, mean graph, read-out: Log10 GI50 (UACC-257) (converted)
Experimental: as §1

SK-MEL-28 = test: NCI in vitro cytotoxicity assay (SRB), SK-MEL-28; assay type: cell-based; details: Homo sapiens, 48 h exposure, sulforhodamine B assay, mean graph, read-out: Log10 GI50 (SK-MEL-28) (converted)
Experimental: as §1

OVCAR-5 = test: NCI in vitro cytotoxicity assay (SRB), OVCAR-5; assay type: cell-based; details: Homo sapiens, 48 h exposure, sulforhodamine B assay, mean graph, read-out: Log10 GI50 (OVCAR-5) (converted)
Experimental: as §1

NCI-H322M = test: NCI in vitro cytotoxicity assay (SRB), NCI-H322M; assay type: cell-based; details: Homo sapiens, 48 h exposure, sulforhodamine B assay, mean graph, read-out: Log10 GI50 (NCI-H322M) (converted)
Experimental: as §1

T-47D = test: NCI in vitro cytotoxicity assay (SRB), T-47D; assay type: cell-based; details: Homo sapiens, T47D; 48 h exposure, sulforhodamine B assay, mean graph; read-out: Log10 GI50 (T-47D) (converted)
Experimental: as §1

Induction EROD activity [1] | CYP1A1 protein expression (Western blot) [2] | Compound | GI50 (SN12C) [µM] | GI50 (MDA-MB-231/ATCC) [µM] | GI50 (SK-MEL-2) [µM] | GI50 (ACHN) [µM] | GI50 (LOX IMVI) [µM] | GI50 (NCIH23) [µM] | GI50 (MCF7) [µM] | GI50 (UACC-62) [µM] | GI50 (M14) [µM] | GI50 (NCI-460) [µM] | GI50 (HT29) [µM] | GI50 (UACC-257) [µM] | GI50 (SK-MEL-28) [µM] | GI50 (OVCAR-5) [µM] | GI50 (NCI-H322M) [µM] | GI50 (T-47D) [µM]
36.64 nM resorufin mg^-1 protein | induced | Cc1cc(-c2nc3cc(F)ccc3s2)ccc1N [Compound 2, 2-(4-Amino-3-methylphenyl)-5-fluorobenzothiazole] | 74.1 | 17.4 | > 100 | 30.2 | > 100 | 51.3 | < 0.01 | 57.5 | 33.9 | < 0.01 | 63.1 | 77.6 | > 100 | 0.0107 | 11 | < 0.01
35.56 nM resorufin mg^-1 protein | induced | Cc1cc(-c2nc3cc(F)ccc3s2)ccc1NC(=O)[C@@H](N)CCCCN [Compound 2b] | 12.3 | 3.55 | 2.51 | 6.03 | 2 | 6.17 | < 0.01 | 14.1 | 2.14 | 0.0708 | 3.24 | 15.8 | 22.4 | 0.126 | 3.09 | < 0.01
